Reference: patent US8816078B2, “Acidic gas removal by aqueous amine solvents” (Board of Regents, The University of Texas System, priority 2010, dated 2014)
Like-named read-outs stand apart in the source and are kept apart here.

Legend:
[1] = 25° C.; cited from earlier work
[2] = Freeman et al., 2009; cited from earlier work
[3] = Heat of CO2 absorption calculated from the VLE model; format: physicochemical
Procedure: VLE models of CO2 partial pressure were regressed from experimental data to calculate CO2 capacity and enthalpy of CO2 absorption (ΔHabs).
Heat of absorption was calculated from the model mentioned above by applying the following thermodynamic equation: […]
Heat of absorption was calculated from the model mentioned above by applying the Gibbs-Helmholtz equation: […]
The heat absorption of CO2 at a 1.5 kPa, which is an average CO2 partial pressure for lean and rich solutions, was calculated.

[4] = for PCO2* at 40° C.: calculated from CO2 solubility curves
[5] = Solubility measurements of CO2 loaded PZ/1-MPZ/1,4-DMPZ blends; format: physicochemical
Procedure: Solubility measurements for CO2 loaded 3.9 m PZ/3.9 m 1-MPZ/0.2 m 1,4-DMPZ and 3.75 m PZ/3.75 m 1-MPZ/0.5 m 1,4-DMPZ solutions were taken to predict the solubility envelope of these blends. The solubility of the blends at varying loadings and temperatures are shown in FIG. 7 for the 3.9 m PZ/3.9 m 1-MPZ/0.2 m 1,4-DMPZ blend and in FIG. 8 for the 3.75 m PZ/3.75 m 1-MPZ/0.5 m 1,4-DMPZ blend. […] At 0° C., the 8 m blend: 3.75 m PZ/3.75 m 1-MPZ/0.5 m […] was soluble at 2° C. with a lean loading of 0.17 mol CO2/mol alkalinity, in contrast to 8 m PZ, which must be operated at loading above 0.3 to avoid solids precipitation.
A maximum CO2 loading of 0.41 and 0.39 was obtained for the 3.9 m PZ/3.9 m 1-MPZ/0.2 m 1,4-DMPZ blend and the 3.75 m PZ/3.75 m 1-MPZ/0.5 m 1,4 DMPZ blend respectively at room temperature without any solid precipitation. Intermediary loaded solutions were prepared by appropriately mixing the rich loaded and zero loaded solutions and observed at temperatures between 0° C. and the melting point of the solution.

[6] = Cyclic CO2 capacity calculated from the regressed VLE model; format: physicochemical
[7] = Solubility and solids precipitation limits of amines in water; format: physicochemical
[8] = Conc. (m): MDEA/PZ 7/2, PZ 8, MEA 7, HEP 7.7, AEP 6, 2-PE 8, AMP 4.8, EDA 12, DGA 10, PZ-MPZ 4/4, MPZ 8
[9] = CO2 Loading 0.035 mol/mole Alkalinity
[10] = CO2 Loading 0.037 mol/mole Alkalinity
[11] = CO2 Loading 0.102 mol/mole Alkalinity
[12] = CO2 Loading 0.104 mol/mole Alkalinity
[13] = CO2 Loading 0.156 mol/mole Alkalinity
[14] = CO2 Loading 0.158 mol/mole Alkalinity
[15] = CO2 Loading 0.209 mol/mole Alkalinity
[16] = CO2 Loading 0.217 mol/mole Alkalinity
[17] = CO2 Loading 0.251 mol/mole Alkalinity
[18] = CO2 Loading 0.266 mol/mole Alkalinity
[19] = CO2 Loading 0.303 mol/mole Alkalinity
[20] = CO2 Loading 0.313 mol/mole Alkalinity, listed as 8 m PZ
[21] = CO2 Loading 0.313 mol/mole Alkalinity, listed as 10 m PZ
[22] = CO2 Loading 0.330 mol/mole Alkalinity

## C1CNCCN1 [PZ, piperazine]
[1]
  solubility in water: less than 2 M
[2]
  temperature up to which highly resistant to thermal degradation: up to 150 °C
[3]; 8 m MPZ, 4 m PZ/4 m MPZ blend, 8 m PZ
  Heat of CO2 absorption (ΔHabs): 16.7 kcal/mol
[3]; [8]
  ΔHabs@PCO2 = 1.5 kPa: 16.7 kcal/mol
[3]; at 1.5 kPa CO2 partial pressure
  heat absorption of CO2: 16.7 kcal/mol
[4]; CO2 Loading 0 mol/mole Alkalinity
  PCO2* at 40° C.: 0.0014 kPa
[4]; CO2 Loading 0 mol/mole Alkalinity, listed as 8 m PZ
  Transition Temp: 43.0 °C
[4]; CO2 Loading 0 mol/mole Alkalinity, listed as 10 m PZ
  Transition Temp: 43 °C
[4]; [9]
  Transition Temp: 40.0 °C
  PCO2* at 40° C.: 0.0023 kPa
[4]; [10]
  Transition Temp: 40.5 °C
  PCO2* at 40° C.: 0.0023 kPa
[4]; [11]
  Transition Temp: 38.5 °C
  PCO2* at 40° C.: 0.0068 kPa
[4]; [12]
  Transition Temp: 38.5 °C
  PCO2* at 40° C.: 0.0070 kPa
[4]; [13]
  Transition Temp: 35 °C
  PCO2* at 40° C.: 0.0179 kPa
[4]; [14]
  Transition Temp: 33.0 °C
  PCO2* at 40° C.: 0.0185 kPa
[4]; [15]
  Transition Temp: 26.5 °C
  PCO2* at 40° C.: 0.0499 kPa
[4]; [16]
  Transition Temp: 27 °C
  PCO2* at 40° C.: 0.0589 kPa
[4]; [17]
  Transition Temp: 18.0 °C
  PCO2* at 40° C.: 0.1216 kPa
[4]; [18]
  Transition Temp: 18 °C
  PCO2* at 40° C.: 0.1679 kPa
[4]; [19]
  Transition Temp: 3.0 °C
  PCO2* at 40° C.: 0.3892 kPa
[4]; [20]
  PCO2* at 40° C.: 0.4862 kPa
  Transition Temp: 0 °C
[4]; [21]
  PCO2* at 40° C.: 0.4830 kPa
  Transition Temp: 5.5 °C
[4]; [22]
  Transition Temp: 0 °C
  PCO2* at 40° C.: 0.7252 kPa
[4]; room temperature (21° C.)
  CO2 loading needed to maintain an aqueous solution: 0.23 mole CO2 per mole alkalinity
[4]; solvent at 0° C.
  highest CO2 loading usable without risk of solid precipitation: ≤ 0.4 moles CO2/equiv PZ
  lowest CO2 loading usable without risk of solid precipitation: ≥ 0.3 moles CO2/equiv PZ
[5]
  CO2 loadings at which solid H+PZCOO−.H2O is formed: ≥ 0.43
[5]; 0° C.
  loading above which the solvent must be operated to avoid solids precipitation: above 0.3
[5]; 25° C.
  CO2 loadings at which solid PZ.6H2O is formed: ≤ 0.22
[6]; [8]
  CO2 Capacity: 0.79 mol/kg (water + amine)
[6]; difference between lean and rich CO2 loading at 500 Pa and 5,000 Pa CO2 partial pressure
  cyclic CO2 capacity: 0.79 mol CO2/kg (water+amine)
[7]
  oxidative degradation: resistant to oxidative degradation
[7]; 0° C.
  CO2 loading below which PZ.6 H2O solids precipitate: less than 0.3
[7]; ambient temperature
  CO2 loading above which protonated piperazine carbamate precipitates: greater than 0.45 moles/equivalent amine
[7]; zero CO2 loading, ambient temperatures, precipitation of PZ.6H2O
  solubility in water: about 2 m
